Test results taken from US8759073B2, “Method for effectively controlling harmful organisms in large-scale culture of microalgae” (ENN Science & Technology Development Co., Ltd., priority 2009, dated 2014).
Entries after “also recorded” stand apart in the source; their conditions may differ.

Tests used:
Nannochloris sp. = assay: Growth of cultured algae after treatment, 1.5 m^3 glass plate reactor; assay type: cell-based; details: Example 9; CO2 periodically at an interval of 2 hours, 2 days
Protocol: (§1) Nannochloris sp. […] Modified BG11 medium (see Table 4) was used. […] Then CO2 was aerated periodically at an interval of 2 hours (pH ranged within 5.0-8.5).

Amoeba = assay: Control of Amoeba contamination in microalgae culture, microscope examination; assay type: cell-based, Amoeba sp.
Source text: If the contaminated alga liquid is identified as alkali tolerant contamination, CO2 is aerated into the culture system of microalgae, so as to lower the pH value. At this time, the appearance of the algae cells and the harmful organisms are observed under a microscope. When the harmful organisms has been inhibited or inactivated, air is sufficiently aerated into the culture system and the pH value is adjusted back to the optimal pH suitable for microalgae growth. In an embodiment, the concentration of CO2 reaches saturation. In an alternative embodiment, the pH value can be adjusted back to the optimal pH suitable for microalgae growth with ammonia (one of the nitrogen sources used by microalgae). In an embodiment, the pH value can be adjusted back to the optimal pH suitable for microalgae growth with NaOH. In an embodiment, the used NaOH is 1M NaOH. In an embodiment, the pH is 5.6-5.7 in the alga culture system with a saturated concentration of CO2. In an alternative embodiment, if the algae are marine algae (such as in the case of Dunaliella tertiolecta), the aerated CO2 can maintain pH within the range of 6.0-6.5. After that, if the harmful organisms have been determined to be in control (for instance, most of Amoeba have become spherical), salinity is reduced by diluting with water (salinity is the ratio between the mass of the solute in seawater and the mass of seawater), followed by sufficient aeration with air, so as to adjust the pH and salinity to a condition suitable for alga growth. In an embodiment (for example, in the case that the alga is Nannochloris sp. or Dunaliella tertiolecta), CO2 can be aerated intermittently. In an embodiment, CO2 can be aerated at an interval of two hours. In an embodiment, the culture system is maintained at pH 6.0-6.5 for 2 days, followed by decreasing 1% of the salinity by adding water. In an embodiment, the culture system is maintained with saturated CO2 for about 28 hours. In an embodiment, CO2 is kept at saturation for about 27 hours in the culture system. In an embodiment, saturated CO2 is aerated continuously into the culture system for 36 hours. In an embodiment, CO2 is aerated periodically at an interval of 2 hours (pH is in the range of 5.0-8.5), for 2 days.
Microscope examination is always used as one of the bases for determining the growth status in the process of microalgae culture. As a result, all the early-stage contamination is found by microscope examination. For example, when the alga liquid without microscope examination is contaminated, it's color generally changes into e.g. brown or brown spots are observed on the wall of the reactor, etc. However the contamination has become severer once the color change is observed directly.
Salinity was reduced by 1% (e.g. from 9% to 8%) by way of dilution with water. Then air was sufficiently aerated.
(§2) Chlorella sp. […] Modified SM medium (see Table 2) was used. […] Then air was sufficiently aerated.
Chlorococcum sp. […] Modified BG11 medium (see Table 3) was used. […] CO2 was aerated continuously.
(§3) Chlorococcum sp. […] Modified BG11 medium (see Table 3) was used. […] Then air was sufficiently aerated. Eighteen hours later, Chlorococcum sp. could resume to grow.
as §1
(§4) Modified SM (see Table 2) was used. […] Then air was sufficiently aerated. Twenty-four hours later, the algae could resume to grow.
(§5) Then air was sufficiently aerated. Eighteen hours later, Chlorococcum sp. could resume to grow.
(§6) Modified SM (see Table 2) was used. […] One hour later, CO2 was aerated to saturation for 23 hour continuously (about pH 5.8). […] Then air was sufficiently aerated. Twenty-four hours later, the algae could resume to grow.

ciliate = assay: Control of ciliate contamination (mixed contamination) in microalgae culture, microscope examination; assay type: cell-based
Source text: In an embodiment, the pH of the culture system is first raised by alkalis, followed by aeration of CO2 to saturation. When the harmful organisms are observed as being in control under a microscope (for example, these harmful organisms such as Oxyrrhis, Amoeba and ciliate cannot be observed under a microscope or the activity of the harmful organisms has been reduced), the pH value is then adjusted back to the optimal pH suitable for microalgae growth by sufficiently aerating air. In an embodiment, an interval of 1 hour exists between the step of raising pH of the culture system with an alkali and the step of aerating CO2 to saturation. In an embodiment, said alkali can be ammonia. In an embodiment, said alkali can be 1M NaOH. […] In an embodiment, the pH of the culture system is adjusted to 11.5-12.0, 11.0-11.8 or 8.0-11.0 with 1M NaOH or 1M ammonia. In an embodiment, the pH of the culture system is adjusted to 11.5-12.0, 11.0-11.8 or 8.0-11.0 and maintained for 1 hours, followed by aeration of CO2 to saturation for about 24 hours. In an embodiment, the pH of the culture system is adjusted to 11.5-12.0, 11.0-11.8 or 8.0-11.0 and maintained for 1 hours, followed by aeration of CO2 to saturation for about 23 hours.
as §2, §3, §4, §5, §6

[1] = Example 4, after 1M NaOH pH 11.0-11.8 1 h, CO2 to saturation (pH 5.6) 24 hours
[2] = Example 7, after 1M NaOH pH 11.5-12.0 1 h, CO2 to saturation (about pH 5.6) 24 hour
[3] = Example 12, after 1M ammonia pH 9.0 1 h, CO2 to saturation (pH 5.6) 24 hours
[4] = Example 14, after 1M ammonia pH 9.0 1 h, CO2 to saturation (about pH 5.6) 24 hour

SMILES: O=C=O [CO2, carbon dioxide]
- growth rate of the algae (Nannochloris sp.): rarely affected; also recorded: not affected
- Amoeba, result of microscope examination (Amoeba; Example 1, Dunaliella tertiolecta culture, CO2 aerated intermittently, pH 6.0-6.5, two days): most Amoebae were found to become spherical
- Amoeba, result of microscope examination (Amoeba; Example 1, after CO2 pH 6.0-6.5 two days, salinity reduced by 1%, air aerated, twenty-four hours later): almost no Amoeba
- Amoeba, result of microscope examination (Amoeba; Example 3, Chlorella sp. culture, CO2 aerated continuously, saturated, pH 5.6-5.7, one hour): most Amoebae were found to become spherical and lose activity
- Amoeba, result of microscope examination (Amoeba; Example 3, saturated CO2, twenty-seven hours after the first hour (about 28 hours)): almost no intact Amoeba was observed; also recorded: almost no Amoeba was found
- Amoeba, result of microscope examination (Amoeba; [1]): no Amoeba
- Amoeba, result of microscope examination (Amoeba; Example 5, Chlorococcum sp. culture, CO2 saturated, pH about 5.6-5.7, one hour): most Amoeba turned into spherical, were inactivated and could not change shape or move
- Amoeba, result of microscope examination (Amoeba; Example 5, saturated CO2, twenty-seven hours later): almost no intact Amoeba were observed
- Amoeba, result of microscope examination (Amoeba; [2]): no Amoeba
- Amoeba, result of microscope examination (Amoeba; Example 9, Nannochloris sp. culture, CO2 aerated periodically at an interval of 2 hours (pH 5.0-8.5), two days): no Amoeba was observed; also recorded: essentially in control
- Amoeba, result of microscope examination (Amoeba; Example 10, Spirulina maxima culture, after 1M NaOH pH 11.5-12.0 1 h, CO2 to saturation (about pH 5.8) 23 hour): no Amoeba
- Amoeba, result of microscope examination (Amoeba; [3]): no Amoeba
- Amoeba, result of microscope examination (Amoeba; [4]): no Amoeba
- Amoeba, result of microscope examination (Amoeba; Example 15, Spirulina maxima culture, after 1M ammonia pH 10.0 1 h, CO2 to saturation (about pH 5.8) 23 hour): no Amoeba
- ciliates, result of microscope examination (ciliate; [1]): a few inactive and immotile ciliates
- ciliates, result of microscope examination (ciliate; [2]): a few inactive and immotile ciliates
- ciliates, result of microscope examination (ciliate; Example 10, after 1M NaOH pH 11.5-12.0 1 h, CO2 to saturation (about pH 5.8) 23 hour): a few inactive and immotile ciliates
- ciliates, result of microscope examination (ciliate; [3]): a few inactive and immotile ciliates
- ciliates, result of microscope examination (ciliate; [4]): a few inactive and immotile ciliates
- ciliates, result of microscope examination (ciliate; Example 15, after 1M ammonia pH 10.0 1 h, CO2 to saturation (about pH 5.8) 23 hour): a few inactive and immotile ciliates
